According to US11566025B2, “Viral replication inhibitors” (Katholieke Universiteit Leuven, priority 2013, dated 2023):
Like-named read-outs stand apart in the source and are kept apart here.

What was measured:
Type in all cases: cell-based
[1] = in vitro; conditions: African green monkey
Procedure: (§1) Potential cytotoxic effects of the compounds were evaluated in uninfected quiescent Vero-B or Vero-M cells. Cells were seeded at 5×10^4 cells/well in a 96-well plate in the presence of two-fold serial dilutions (ranging from 50 μg/mL-0.004 μg/mL) of compound and incubated for 4 to 7 days. Culture medium was discarded and 100 μL 3-(4,5-dimethylthiazol-2-yl)-5-(3-carboxymethoxyphenyl)-2-(4-sulfophenyl)-2H-tetrazolium/phenazinemethosuIfate (MTS/PMS; Promega, Leiden, The Netherlands) in PBS was added to each well. Following a 2-hour incubation period at 37° C., the optical density was determined at 498 nm. Cytotoxic activity was calculated using the following formula: % cell viability=100× (ODcompound/ODCC), where ODcompound and ODCC correspond to the optical density at 498 nm of the uninfected cell cultures treated with compound and that of uninfected, untreated cell cultures, respectively. The 50% cytotoxic concentration (i.e., the concentration that reduces the total cell number with 50%; CC50) was calculated using linear interpolation.

[2] = tested on: DENV-2 NGC; assay: Antiviral activity against DENV-2 in Vero-B cells (viral RNA load by RT-qPCR); conditions: Dengue virus, DENV2, 96 h; DENV-2, Vero-B cells, inhibition of viral RNA replication by 50%, 4 days
[3] = tested on: DENV-3 strain H87 prototype; assay: Antiviral activity against DENV-3 in Vero-B cells (viral RNA load by RT-qPCR); conditions: Dengue virus
[4] = tested on: DENV-1 Djibouti strain D1/H/IMTSSA/98/606; assay: Antiviral activity against DENV-1 in Vero-B cells (viral RNA load by RT-qPCR); conditions: Dengue virus, DENV1, 168 h; DENV-1, Vero-B cells, inhibition of viral RNA replication by 50%, 7 days
[5] = tested on: DENV-4 strain H241; assay: Antiviral activity against DENV-4 in Vero-M cells (viral RNA load by RT-qPCR); conditions: Dengue virus, DENV4, 120 h; DENV-4, Vero-M cells, inhibition of viral RNA replication by 50%, 5 days
[6] = tested on: Vero-B cells; assay: in vitro; conditions: African green monkey
Procedure: as §1

[7] = DENV3, 168 h, DENV-3, Vero-B cells, inhibition of viral RNA replication by 50%, 7 days, read-out: EC50

Compound | CC50 ([1]; CC50 (μM)) [µM] | EC50 [2] [nM] | EC50 [3, 7] [nM] | EC50 [4] [nM] | CC50 [1] [µM] | EC50 [5] [nM] | CC50 [6] [nM] | EC50 ([3]; DENV3, Vero B, 168 h) [nM]
COc1cccc(NC(C(=O)c2nn(C)cc2-c2ccc(C#N)cc2)c2cc3ccccn3n2)c1 (stereo not drawn) [CPD-014] | > 108 | 2290 |  |  |  |  |  | 
COc1cccc(NC(C(=O)c2nn(C)cc2-c2c(C)noc2C)c2ccc(C)cc2)c1 (stereo not drawn) [CPD-020] | > 116 | 13200 |  |  |  |  |  | 
COc1cccc(NC(C(=O)c2nn(C)cc2-c2ccc(C)nc2)c2ccccc2)c1 (stereo not drawn) [CPD-019] | 80 | 39900 |  |  |  |  |  | 
COc1cccc(NC(C(=O)c2c[nH]cc2-c2ccccc2)c2ccccc2)c1 (stereo not drawn) [CPD-024] |  | 207 | 1910 | 1530 | 10 | 1600 |  | 
COc1cccc(NC(C(=O)c2nn(C)cc2-c2ccccc2)c2cncc(F)c2)c1 (stereo not drawn) [CPD-004] | > 120 | 1550 |  | 9780 |  |  | > 120000 | 
COc1cccc(NC(C(=O)c2nn(C)cc2-c2ccccc2)c2ccccc2)c1 (stereo not drawn) [CPD-001] | > 125 | 323 | 2120 | 2640 |  |  | > 126000 | 
COc1cccc(NC(C(=O)c2nn(C)cc2-c2ccccc2)c2cc3ccccn3n2)c1 (stereo not drawn) [CPD-013] | > 114 | 343 |  | 2240 |  |  | > 114000 | 
COc1cccc(NC(C(=O)c2nn(C)cc2-c2ccc3scnc3c2)c2ccc(OC)nc2)c1 (stereo not drawn) [CPD-016] | > 103 | 1870 |  |  |  |  |  | 
COc1cccc(NC(C(=O)c2nn(C)cc2-c2ccccc2F)c2ccccc2)c1 (stereo not drawn) [CPD-005] | > 120 | 383 |  |  |  |  |  | 
COc1cc(NC(C(=O)N2CCCC2c2ccccc2)c2ccc(C)cc2)cc(OC)c1 (stereo not drawn) [CPD-028] | > 116 | 221 |  | 17200 | > 116 | 6670 | 70000 | 
COc1cccc(NC(C(=O)c2nn(C)cc2-c2cccc(F)c2)c2ccccc2)c1 (stereo not drawn) [CPD-006] | > 120 | 517 |  |  |  |  |  | 
COc1cccc(NC(C(=O)c2nn(C)cc2-c2ccccc2)c2ccc(F)cc2)c1 (stereo not drawn) [CPD-008] | > 120 | 96 | 1010 | 2640 | > 120 | 4740 | > 120000 | 
COc1cc(NC(C(=O)N2CCCCC2c2ccccc2)c2ccc(C)cc2)cc(OC)c1 (stereo not drawn) [CPD-027] |  | 1220 | 7230 | 2080 |  |  |  | 
COc1cccc(NC(C(=O)c2cn(C)nc2-c2ccccc2)c2ccccc2)c1 (stereo not drawn) [CPD-026] | > 126 |  |  | 2390 |  |  |  | 
COc1cccc(NC(C(=O)c2nn(C)cc2-c2ccncc2)c2ccc(C)cc2)c1 (stereo not drawn) [CPD-010] | > 121 | 2110 |  |  |  |  |  | 
COc1cccc(NC(C(=O)c2nn(C)cc2-c2cccs2)c2ccc(OC)nc2)c1 (stereo not drawn) [CPD-018] | > 115 | 1270 |  |  |  |  |  | 

Compound | CC50 ([1]; CC50 (μM)) [µM] | EC50 [2] [nM] | EC50 [3, 7] [nM] | EC50 [4] [nM] | CC50 [1] [µM] | EC50 [5] [nM] | CC50 [6] [nM] | EC50 ([3]; DENV3, Vero B, 168 h) [nM]
COc1cccc(NC(C(=O)c2nn(C)cc2-c2ccc3c(c2)CCO3)c2ccc(OC)nc2)c1 (stereo not drawn) [CPD-017] | > 106 | 1640 |  |  |  |  |  | 
COc1cc(NC(C(=O)N2CCOCC2c2ccccc2)c2ccc(C)cc2)cc(OC)c1 (stereo not drawn) [CPD-312] | > 112 | 5650 |  |  |  |  |  | 
COc1cccc(NC(C(=O)c2nn(C)cc2-c2ccccc2)c2cnc(OC)cn2)c1 (stereo not drawn) [CPD-011] | > 116 | 745 |  |  |  |  |  | 
COc1cc(NC(C(=O)N2CCN(C)CC2c2ccccc2)c2ccc(C)cc2)cc(OC)c1 (stereo not drawn) [CPD-238] | > 99 | 2820 |  |  |  |  |  | 
COc1cccc(NC(C(=O)c2cscc2-c2ccccc2)c2ccccc2)c1 (stereo not drawn) [CPD-025] | > 125 |  |  | 3630 |  |  |  | 
COc1cccc(NC(C(=O)c2nn(C)cc2-c2ccccc2)c2cccnc2)c1 (stereo not drawn) [CPD-003] | > 125 | 1660 |  | 7010 |  |  | 104000 | 
COc1cncc(NC(C(=O)c2nn(C)cc2-c2ccccc2)c2ccc(OC)nc2)c1 (stereo not drawn) [CPD-012] | > 116 | 71300 |  |  |  |  |  | 
COc1cc(NC(C(=O)c2nn(C)cc2-c2ccccc2)c2ccc(C)cc2)cc(OC)c1 (stereo not drawn) [CPD-015] | > 113 | 16 |  | 132 | > 113 | 3150 | > 113000 | 1190
COc1cccc(NC(C(=O)c2n[nH]cc2-c2ccccc2)c2ccccc2)c1 (stereo not drawn) [CPD-023] |  | 443 |  | 939 |  |  |  | 
COc1cc(NC(C(=O)c2cn(C)c(Br)c2-c2ccccc2)c2ccccc2)cc(OC)c1 (stereo not drawn) [CPD-311] | > 99 | 47 | 266 | 16 |  |  | > 99000 | 
COc1cccc(NC(C(=O)c2nn(C)cc2-c2cncnc2)c2ccc(C)cc2)c1 (stereo not drawn) [CPD-009] | > 120 | 3290 |  |  |  |  |  | 
COc1cccc(NC(C(=O)c2nn(C)cc2-c2cnn(C)c2)c2ccccc2)c1 (stereo not drawn) [CPD-007] | > 125 | 15500 |  |  |  |  |  | 
COc1cccc(NC(C(=O)c2nn(C)cc2-c2ccc(F)cc2)c2ccccc2)c1 (stereo not drawn) [CPD-002] | > 120 | 95 | 794 | 2090 | > 120 | 8210 | > 120000 | 
COc1cc(NC(C(=O)N2CCS(=O)(=O)CC2c2ccccc2)c2ccc(C)cc2)cc(OC)c1 (stereo not drawn) [CPD-314] | > 101 | 4470 |  |  |  |  |  | 
COc1cc(NC(C(=O)N2CCCCCC2c2ccccc2)c2ccc(C)cc2)cc(OC)c1 (stereo not drawn) [CPD-242] | > 109 | 1160 |  |  |  |  |  | 
COc1cc(NC(C(=O)N2CCSCC2c2ccccc2)c2ccc(C)cc2)cc(OC)c1 (stereo not drawn) [CPD-313] | > 108 | 951 |  |  |  |  |  | 
